Like-named read-outs stand apart in the source and are kept apart here.
Target: Nrf2-Keap1 complex (Homo sapiens, UniProt Q14145)
Experiment: cell-based
Format: cell-based
Conditions: for activation at 16 µM / activation at 32 µM: 3 h; for activation at 16 µM: read-out: Activation 100 nL; for activation at 32 µM: read-out: Activation 200 nL
[1] = Table 2, 100 nL compound, screen run at 16 and 32 μM, 3 hr
[2] = Table 2, 200 nL compound, screen run at 16 and 32 μM, 3 hr

Chain of Nrf2-Keap1 complex (Q14145 whole entry, one chain of several): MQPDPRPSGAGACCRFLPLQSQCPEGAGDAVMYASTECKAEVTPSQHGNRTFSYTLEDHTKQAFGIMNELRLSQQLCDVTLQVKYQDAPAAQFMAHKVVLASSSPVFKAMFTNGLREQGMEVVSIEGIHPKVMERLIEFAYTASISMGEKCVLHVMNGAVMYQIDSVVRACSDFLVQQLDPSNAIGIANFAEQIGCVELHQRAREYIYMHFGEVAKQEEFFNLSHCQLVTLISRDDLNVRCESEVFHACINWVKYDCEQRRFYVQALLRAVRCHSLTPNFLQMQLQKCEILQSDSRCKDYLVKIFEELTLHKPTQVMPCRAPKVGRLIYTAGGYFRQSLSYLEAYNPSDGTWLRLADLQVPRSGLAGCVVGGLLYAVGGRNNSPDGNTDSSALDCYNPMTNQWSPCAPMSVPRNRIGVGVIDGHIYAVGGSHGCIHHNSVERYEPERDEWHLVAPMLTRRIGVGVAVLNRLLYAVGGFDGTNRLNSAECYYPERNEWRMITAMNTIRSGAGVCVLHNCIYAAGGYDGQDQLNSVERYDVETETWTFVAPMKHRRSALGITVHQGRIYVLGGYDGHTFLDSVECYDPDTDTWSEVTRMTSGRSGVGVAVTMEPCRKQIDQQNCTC

SMILES	100 nL (luminescence)	200 nL (luminescence)	activation at 16 µM [%]	activation at 32 µM [%]	100 nL (luminescence) [1]	200 nL (luminescence) [2]	Activation 100 nL [%]	Activation 200 nL [%]	Neh2-luc reporter activation [%]	hit strength in the screen (words)
C=C1CC[C@@H]2[C@](C)(CO)[C@H](O)CC[C@@]2(C)[C@@H]1C/C=C1/C(=O)OC[C@H]1O [ANDROGRAPHOLIDE]	1404	708	78	11	–	–	–	–	–	–
CC1(C)C(=O)C=C[C@]2(C)[C@H]3CC[C@@]4(C)[C@H](c5ccoc5)OC(=O)[C@H]5O[C@]54[C@]3(C)[C@H](O)C[C@@H]12 [DEACETYLGEDUNIN]	–	–	69	-7	1412	220	–	–	–	–
CC(=O)O[C@H]1CC[C@]2(C)[C@H]3CC[C@@]4(C)[C@H](c5ccoc5)OC(=O)[C@H]5O[C@]54[C@]3(C)[C@H](OC(C)=O)C[C@H]2C1(C)C [3beta-ACETOXYDEOXODIHYDROGEDUNIN]	–	–	–	–	924	972	37	42	–	–
O=c1c(O)c(-c2ccccc2)oc2cccc(O)c12 [3,5-DIHYDROXYFLAVONE]	–	–	66	-17	1484	24	–	–	–	–
CC1CCC(NC(=O)N(CCCl)N=O)CC1 (stereo not drawn) [SEMUSTINE, reference compound]	1172	3000	39	144	–	–	–	–	–	–
COc1cc([C@@H]2c3cc4c(cc3[C@@H](O[C@@H]3O[C@@H]5CO[C@@H](c6cccs6)O[C@H]5[C@H](O)[C@H]3O)[C@H]3COC(=O)[C@H]23)OCO4)cc(OC)c1O [TENIPOSIDE, reference compound]	–	–	159	61	3572	1520	–	–	200	–
COc1cc([C@@H]2c3cc4c(cc3[C@H](O)[C@H]3COC(=O)[C@@H]23)OCO4)cc(OC)c1OC [PICROPODOPHYLLOTOXIN]	–	–	32	57	848	1196	–	–	–	–
CC(C)=CCCC1(C)C=Cc2c(O)c3c(c(CC=C(C)C)c2O1)OC12C(=CCCC1C(C)(C)O[C@@]2(C/C=C(\C)C(=O)O)C(=O)O)C3=O (stereo partly drawn) [GARCINOLICACID]	–	–	29	33	800	832	–	–	–	–
COc1ccc2c(c1)OCC(Cc1ccc(OC(C)=O)c(OC)c1)C2=O (stereo not drawn)	–	–	–	–	3740	1388	221	70	–	–
COc1ccc2c(c1)OC/C(=C\c1ccc(OC)c(O)c1)C2=O [SAPPANONEADIMETHYLETHER]	–	–	377	110	6124	2008	–	–	–	–
CC(=O)OC1CC[C@@]2(C)C(CC[C@H]3[C@@H]4CC=C(C(C)=O)[C@@]4(C)C(=O)C[C@@H]32)C1 (stereo partly drawn) [3-ACETOXYPREGN-16-EN-12,20-DIONE]	–	–	214	30	2236	1040	–	–	–	–
CC(=O)O[C@H]1C[C@@H](O)C(C)(C)[C@@H]2C[C@@H](OC(C)=O)[C@]3(C)[C@H](CC[C@@]4(C)[C@@H](c5ccoc5)OC(=O)[C@H]5O[C@@]534)[C@@]12C [3-DEACETYLKHIVORIN]	–	–	–	–	1628	2102	94	72	–	–
O=C(CCBr)N1CCN(C(=O)CCBr)CC1 [PIPOBROMAN, reference compound]	1976	3732	79	185	–	–	–	–	–	–
COc1ccc2ccc(=O)oc2c1CC=C(C)C [OSTHOL]	–	–	–	–	1136	1634	58	52	–	–
COc1ccc(/C=C/C(=O)c2ccc(O)cc2O)cc1OC [2′,4′-DIHYDROXY-3,4-DIMETHOXYCHALCONE]	–	–	321	185	5876	3964	–	–	–	–
CCOCN(C(=O)CCl)c1c(C)cccc1CC [ACETOCHLOR]	–	–	71	112	1320	3024	–	–	–	–
CC(C)[C@@H](C)/C=C/[C@@H](C)[C@H]1CC[C@H]2C3=CC=C4C[C@@H](O)CC[C@]4(C)[C@H]3CC[C@]12C [ERGOSTEROL]	–	–	86	86	1676	1640	–	–	–	–
C=C(C)[C@@H]1CC=C(CO)CC1 [PERILLYLALCOHOL]	824	736	31	27	–	–	–	–	–	–
C[C@@H]1C[C@H]2[C@@H]3CCC4=CC(=O)C=C[C@]4(C)[C@@]3(Cl)[C@@H](O)C[C@]2(C)[C@@]1(OC(=O)c1ccco1)C(=O)CCl [MOMETASONEFUROATE, reference compound]	–	–	56	140	1508	2936	–	–	–	–

SMILES	100 nL (luminescence)	200 nL (luminescence)	activation at 16 µM [%]	activation at 32 µM [%]	100 nL (luminescence) [1]	200 nL (luminescence) [2]	Activation 100 nL [%]	Activation 200 nL [%]	Neh2-luc reporter activation [%]	hit strength in the screen (words)
CC(=O)N1CCN(c2ccc(OCC3CO[C@](Cn4ccnc4)(c4ccc(Cl)cc4Cl)O3)cc2)CC1 (stereo partly drawn) [KETOCONAZOLE, reference compound]	1144	1026	–	–	–	–	64	33	–	–
CC(=O)[O-].CC(=O)[O-].[Cd+2] [CADMIUMACETATE]	–	–	–	–	992	312	47	−6	–	–
Nc1ncnc2c1ncn2[C@H]1C[C@H](O)[C@@H](CO)O1 [DEOXYADENOSINE]	788	390	32	-3	–	–	–	–	–	–
COc1cc(C)c2c(c1C=O)Oc1c(c(C)c(O)c3c1C(O)OC3=O)OC2=O (stereo not drawn) [[…]]	–	–	56	65	1114	1952	–	–	–	–
COc1c(C)c2c(c(O)c1C/C=C(\C)CCC(=O)O)C(=O)OC2 [MYCOPHENOLICACID, reference compound]	–	–	26	84	904	1428	–	–	–	–
O=C(CC[N+](=O)[O-])OC[C@H]1O[C@@H](O)[C@H](OC(=O)CC[N+](=O)[O-])[C@@H](OC(=O)CC[N+](=O)[O-])[C@@H]1OC(=O)CC[N+](=O)[O-] [[…]]	–	–	–	–	1020	1268	75	40	–	–
O=C1CC(c2ccc(O)cc2)Oc2ccccc21 (stereo not drawn) [4′-HYDROXYFLAVANONE]	–	–	158	75	1752	2088	–	–	–	–
COC(=O)[C@H]1[C@H]2C[C@@H]3c4[nH]c5cc(OC)ccc5c4CCN3C[C@H]2C[C@@H](OC(=O)c2cc(OC)c(OC)c(OC)c2)[C@@H]1OC [RESERPINE, reference compound]	–	–	36	8	1120	572	–	–	–	–
Cc1c(O)c(O)cc2c1CC=C1[C@@]2(C)CC[C@@]2(C)[C@@H]3C[C@](C)(C(=O)O)CC[C@]3(C)CC[C@]12C [DIHYDROCELASTROL]	–	–	62	-16	1196	88	–	–	–	modest hit
COc1cc(/C=C/C(=O)CC(=O)/C=C/c2ccc(O)c(OC)c2)ccc1O [CURCUMIN]	–	–	252	-4	4208	264	–	–	–	–
CC(=O)NC(C(=O)O)C(C)(C)SN=O (stereo not drawn) [reference compound]	–	–	–	–	1044	1120	45	52	–	–
C=C(C)[C@@H]1CC[C@]2(C(=O)O)CC[C@]3(C)[C@H](CC[C@@H]4[C@@]5(C)CC[C@H](O)C(C)(C)[C@@H]5CC[C@]43C)[C@@H]12 [BETULINICACID]	–	–	54	85	–	–	–	–	–	–
O=C(/C=C/c1ccc(O)cc1)c1ccccc1O [2′,4-DIHYDROXYCHALCONE]	–	–	390	-9	3784	120	–	–	–	–
O=CC=Cc1ccc(O)cc1 [p-HYDROXYCINNAMALDEHYDE]	–	–	63	122	1208	3256	–	–	–	–
CCCCCCCCCCCCCCCc1ccco1 [AVOCADANOFURAN]	–	–	–	–	880	1088	59	32	–	–
Cn1cnc([N+](=O)[O-])c1Sc1[nH]cnc2ncnc1-2 [AZATHIOPRINE, reference compound]	948	1804	49	70	–	–	–	–	–	modest hits
CC1(C)C(=O)C=C[C@]2(C)[C@H]3CC[C@@]4(C)[C@H](c5ccoc5)OC(=O)[C@H]5O[C@]54[C@]3(C)C(=O)C[C@@H]12 [DEACETOXY-7-OXOGEDUNIN]	–	–	–	–	1048	448	45	8	–	–
C#C[C@]1(O)CC[C@H]2[C@@H]3CCC4=C(CCC(=O)C4)[C@H]3CC[C@@]21C [NORETHYNODREL, reference compound]	1948	3920	128	171	–	–	–	–	–	–
CC(=O)O[C@@H]1CC2C(C)(C)[C@H](O)C=C[C@]2(C)C2CC[C@]3(C)C(=CC(=O)O[C@H]3c3ccoc3)[C@@]21C (stereo partly drawn) [3-alpha-HYDROXYDEOXYGEDININ]	–	–	–	–	1196	1764	55	94	–	–
